pIC50: −log10 of the molar value. In brackets after ≈: the same amount, converted by molar mass. Structures can show the parent of a compound that is named as a salt. Where two headings read alike, the source gives them in different places.
Tests used:
[1] = system: susceptible H37Rv M. tuberculosis, strain ATCC 25618; test: Mycobacterium tuberculosis susceptibility assay REMA (resazurin microtiter assay); assay type: cell-based; set-up: REMA MIC: unit not given here; details: for MIC: Mycobacterium tuberculosis, 144 h, read-out: REMA MIC
[2] = system: HepG2 cell line; test: in vitro cytotoxicity assay (MTS tetrazolium reduction, cell viability); assay type: cell-based; details: Homo sapiens, HepG2, 48 h
Protocol: In an embodiment, the in vitro cytotoxicity assay was carried out as follows. […] The assay was performed in 96 well plates for 48 h at 37° C. and 5% CO2 in incubation medium (low glucose DMEM with Glutamax, 10% FBS, 1% Pen/Strep and DMSO). Cells were exposed to 8 different compound concentrations in successive dilutions (usually, base 2), plus a positive control (a compound in a concentration known to decrease cell viability above 50%) and a negative control (incubation medium). Six replicate wells were assayed for each condition. Compound stock solutions were prepared in DMSO at 20 mM, whenever possible, filter sterilized, aliquoted and stored at −20° C. The maximum compound concentrations tested depend on its solubility in incubation medium, and on the maximum DMSO percentage allowable without loss of cell viability. At the end of the incubation period, tetrazolium reagent was added (CellTiter 96® AQueous Solution from Promega); cells were incubated for another 3 hours in order to promote tetrazolium reduction to formazan by viable cells. The amount of soluble formazan produced was evaluated by 490 nm absorbance reading in a spectrophotometer plate reader.

[3] = Table 1, MTB growth, H37Rv, 6 days at 37° C., Middlebrook 7H9
[4] = Table 2, MTB growth, H37Rv, 6 days at 37° C., Middlebrook 7H9
[5] = Table 1, cytotoxicity, MTS, read-out: IC50

In the case of CCOC(=O)C1CCN(c2ccc3cc(-c4ccccn4)ccc3n2)CC1 [Compound 55, ethyl 1-(6-(pyridin-2-yl)quinolin-2-yl)piperidine-4-carboxylate], the MIC [1, 3] was less than 7.8 µM and the MIC [1, 4] was less than 7.8 µM.
For CCOC(=O)C1CCN(c2ccc3cc(-c4ccc(OC)cc4C(F)(F)F)ccc3n2)CC1 [Compound 24, ethyl 1-(6-(4-methoxy-2-(trifluoromethyl)phenyl)quinolin-2-yl)piperidine-4-carboxylate hydrochloride], the MIC [1] was less than 7.8 µM and the “REMA MIC” value [1, 4] was “++++ (<7.8)”.
CCOC(=O)C1CCN(c2ccc3cc(-c4cccc(Cl)c4)ccc3n2)CC1 [Compound 64, ethyl 1-(6-(3-chlorophenyl)quinolin-2-yl)piperidine-4-carboxylate] showed an MIC [1, 3] of 7.8 to 15.6 µM (≈ 3.08 to 6.16 µg/mL).
CCOC(=O)C1CCN(c2ccc3cc(-c4ccc(Cl)c(F)c4)ccc3n2)CC1 [Compound 63, ethyl 1-(6-(4-chloro-3-fluorophenyl)quinolin-2-yl)piperidine-4-carboxylate] was tested, and the MIC [1, 3] was less than 7.8 µM and the MIC [1, 4] was less than 7.8 µM.
In the case of CCOC(=O)C1CCN(c2ccc3cc(-c4cccc(OC)c4)ccc3n2)CC1 [Compound 30, ethyl 1-(6-(3-methoxyphenyl)quinolin-2-yl)piperidine-4-carboxylate], the MIC [1, 3] was 7.8 to 15.6 µM (≈ 3.05 to 6.09 µg/mL) and the pIC50 [2, 5] was less than 4.00.
Work on CCOC(=O)C1CCCN(c2ccc3cc(-c4ccncc4)ccc3n2)C1 (centres unmarked) [Compound 54, ethyl 1-(6-(pyridin-4-yl)quinolin-2-yl)piperidine-3-carboxylate] yielded an MIC [1, 3] of 7.8 to 15.6 µM (≈ 2.82 to 5.64 µg/mL) and a pIC50 [2, 5] of less than 4.00.
Work on CCOC(=O)C1CCN(c2ccc3cc(-c4cc(OC)cc(OC)c4)ccc3n2)CC1 [Compound 41, ethyl 1-(6-(3,5-dimethoxyphenyl)quinolin-2-yl)piperidine-4-carboxylate] yielded an MIC [1, 3] of 7.8 to 15.6 µM (≈ 3.28 to 6.56 µg/mL) and a pIC50 [2, 5] of 4.00 to 4.30.
CCOC(=O)C1CCN(c2ccc3cc(-c4ccc(C)nc4)ccc3n2)CC1 [Compound 50, ethyl 1-(6-(6-methylpyridin-3-yl)quinolin-2-yl)piperidine-4-carboxylate] gave an MIC [1, 3] of less than 7.8 µM and an MIC [1, 4] of less than 7.8 µM.
With CCOC(=O)C1CCN(c2ccc3cc(-c4ccc(OC)c(F)c4)ccc3n2)CC1 [Compound 58, ethyl 1-(6-(3-fluoro-4-methoxyphenyl)quinolin-2-yl)piperidine-4-carboxylate] the MIC [1, 3] was less than 7.8 µM and the MIC [1, 4] was less than 7.8 µM.
COc1ccc(-c2ccc3nc(N4CCC(C(=O)O)CC4)ccc3c2)cc1 [Compound 21, 1-(6-(4-methoxyphenyl)quinolin-2-yl)piperidine-4-carboxylic acid] showed an MIC [1, 3] of less than 7.8 µM and an MIC [1, 4] of less than 7.8 µM.
O=C(O)C1CCN(c2ccc3cc(-c4cccc(F)c4)ccc3n2)CC1 [Compound 11, 1-(6-(3-fluorophenyl)quinolin-2-yl)piperidine-4-carboxylic acid] showed an MIC [1, 3] of less than 7.8 µM and an MIC [1, 4] of less than 7.8 µM.
CCOC(=O)C1CCN(c2ccc3cc(-c4ccccc4C(F)(F)F)ccc3n2)CC1 [Compound 69, ethyl 1-(6-(2-(trifluoromethyl)phenyl)quinolin-2-yl)piperidine-4-carboxylate] showed an MIC [1, 3] of less than 7.8 µM and an MIC [1, 4] of less than 7.8 µM.
Compound CCOC(=O)C1CCN(c2ccc3cc(-c4ccc5[nH]ccc5c4)ccc3n2)CC1 [Compound 42, ethyl 1-(6-(1H-indol-5-yl)quinolin-2-yl)piperidine-4-carboxylate] has an MIC [1, 3] of 7.8 to 15.6 µM (≈ 3.12 to 6.23 µg/mL) and a pIC50 [2, 5] of 4.30 to 4.70.
Compound COc1ccc(-c2ccc3nc(N4CCC(C(=O)O)CC4)ccc3c2)c(Cl)c1 [Compound 23, 1-(6-(2-chloro-4-methoxyphenyl)quinolin-2-yl)piperidine-4-carboxylic acid] has an MIC [1, 3] of 7.8 to 15.6 µM (≈ 3.1 to 6.19 µg/mL).
Work on CCOC(=O)C1CCN(c2ccc3cc(-c4ccco4)ccc3n2)CC1 [Compound 16, ethyl 1-(6-(furan-2-yl)quinolin-2-yl)piperidine-4-carboxylate] yielded an MIC [1, 3] of 7.8 to 15.6 µM (≈ 2.73 to 5.47 µg/mL) and a pIC50 [2, 5] of less than 4.00.
In the case of CCOC(=O)C1CCN(c2ccc3cc(-c4cccc(F)c4)ccc3n2)CC1 [Compound 74, ethyl 1-(6-(3-fluorophenyl)quinolin-2-yl)piperidine-4-carboxylate], the “REMA MIC” value [1, 3] was “+++ (7.8-15.6)”.
CCOC(=O)C1CCN(c2ccc3cc(-c4ccc(F)cc4OC)ccc3n2)CC1 [Compound 71, ethyl 1-(6-(4-fluoro-2-methoxyphenyl)quinolin-2-yl)piperidine-4-carboxylate] gave an MIC [1, 4] of less than 7.8 µM.
CCOC(=O)C1CCN(c2ccc3cc(-c4ccccc4OC(F)(F)F)ccc3n2)CC1 [Compound 70, ethyl 1-(6-(2-(trifluoromethoxy)phenyl)quinolin-2-yl)piperidine-4-carboxylate] was tested, and the MIC [1, 3] was less than 7.8 µM.
Work on CCOC(=O)C1CCN(c2ccc3cc(-c4ccnc(C)c4)ccc3n2)CC1 [Compound 40, ethyl 1-(6-(2-methylpyridin-4-yl)quinolin-2-yl)piperidine-4-carboxylate] yielded an MIC [1, 3] of 7.8 to 15.6 µM (≈ 2.93 to 5.86 µg/mL) and a pIC50 [2, 5] of 4.30 to 4.70.
For O=C(O)C1CCN(c2ccc3cc(-c4cccc(OC(F)(F)F)c4)ccc3n2)CC1 [Compound 29, 1-(6-(3-(trifluoromethoxy)phenyl)quinolin-2-yl)piperidine-4-carboxylic acid], the MIC [1, 3] was less than 7.8 µM and the MIC [1, 4] was less than 7.8 µM.
Work on CCOC(=O)C1CCN(c2ccc3cc(-c4ccnc(F)c4)ccc3n2)CC1 [Compound 37, ethyl 1-(6-(2-fluoropyridin-4-yl)quinolin-2-yl)piperidine-4-carboxylate] yielded an MIC [1, 3] of 7.8 to 15.6 µM (≈ 2.96 to 5.92 µg/mL) and a pIC50 [2, 5] of 4.00 to 4.30.
CCOC(=O)C1CCN(c2ccc3cc(-c4ccc(O)cc4)ccc3n2)CC1 [Compound 3, Ethyl 1-(6-(4-hydroxyphenyl)quinolin-2-yl)piperidine-4-carboxylate] was tested, and the MIC [1, 3] was 7.8 to 15.6 µM (≈ 2.94 to 5.87 µg/mL) and the pIC50 [2, 5] was less than 4.00.
For O=C(O)C1CCN(c2ccc3cc(-c4ccncc4)ccc3n2)CC1 [Compound 18, 1-(6-(pyridin-4-yl)quinolin-2-yl)piperidine-4-carboxylic acid hydrochloride], the MIC [1] was 7.8 to 15.6 µM.
Work on CCOC(=O)C1CCN(c2ccc3cc(-c4cccc(F)c4)ccc3n2)CC1 [Compound 8, ethyl 1-(6-(3-fluorophenyl)quinolin-2-yl)piperidine-4-carboxylate] yielded an MIC [1, 3] of less than 7.8 µM and an MIC [1, 4] of less than 7.8 µM.
CCOC(=O)C1CCN(c2ccc3cc(-c4ccc(F)c(Cl)c4)ccc3n2)CC1 [Compound 75, ethyl 1-(6-(3-chloro-4-fluorophenyl)quinolin-2-yl)piperidine-4-carboxylate] showed an MIC [1, 3] of 7.8 to 15.6 µM (≈ 3.22 to 6.44 µg/mL).
In the case of CCOC(=O)C1CCN(c2ccc3cc(-c4ccc(OC)cc4Cl)ccc3n2)CC1 [Compound 19, ethyl 1-(6-(2-chloro-4-methoxyphenyl)quinolin-2-yl)piperidine-4-carboxylate], the MIC [1, 3] was less than 7.8 µM and the MIC [1, 4] was less than 7.8 µM.
CCOC(=O)C1CCN(c2ccc3cc(-c4ccc(F)nc4)ccc3n2)CC1 [Compound 35, ethyl 1-(6-(6-fluoropyridin-3-yl)quinolin-2-yl)piperidine-4-carboxylate] showed an MIC [1, 3] of 7.8 to 15.6 µM (≈ 2.96 to 5.92 µg/mL) and a pIC50 [2, 5] of less than 4.00.
For O=C(O)C1CCN(c2ccc3cc(-c4ccc(OC(F)(F)F)cc4)ccc3n2)CC1 [Compound 2, 1-(6-(4-(Trifluoromethoxy)phenyl)quinolin-2-yl)piperidine-4-carboxylic acid], the MIC [1, 3] was less than 7.8 µM and the MIC [1, 4] was less than 7.8 µM.
Work on CCOC(=O)C1CCN(c2ccc3cc(-c4ccc(OC)nc4)ccc3n2)CC1 [Compound 14, ethyl 1-(6-(6-methoxypyridin-3-yl)quinolin-2-yl)piperidine-4-carboxylate] yielded an MIC [1, 3] of less than 7.8 µM and an MIC [1, 4] of less than 7.8 µM.
With CCOC(=O)C1CCN(c2ccc3cc(-c4cc5ccccc5s4)ccc3n2)CC1 [Compound 68, ethyl 1-(6-(benzo[b]thiophen-2-yl)quinolin-2-yl)piperidine-4-carboxylate] the MIC [1, 3] was 7.8 to 15.6 µM (≈ 3.25 to 6.5 µg/mL).
For CCOC(=O)C1CCN(c2ccc3cc(-c4ccc(OC)c(C(F)(F)F)c4)ccc3n2)CC1 [Compound 72, ethyl 1-(6-(4-methoxy-3-(trifluoromethyl)phenyl)quinolin-2-yl)piperidine-4-carboxylate], the MIC [1, 3] was 7.8 to 15.6 µM (≈ 3.58 to 7.15 µg/mL).
With COc1cccc(-c2ccc3nc(N4CCC(C(=O)O)CC4)ccc3c2)c1 [Compound 22, 1-(6-(3-methoxyphenyl)quinolin-2-yl)piperidine-4-carboxylic acid] the MIC [1, 3] was 7.8 to 15.6 µM (≈ 2.83 to 5.65 µg/mL) and the pIC50 [2, 5] was less than 4.00.
CC(C)Oc1ccc(-c2ccc3nc(N4CCC(C(=O)O)CC4)ccc3c2)cc1F [Compound 10, 1-(6-(3-fluoro-4-isopropoxyphenyl)quinolin-2-yl)piperidine-4-carboxylic acid] gave an MIC [1, 3] of less than 7.8 µM and an MIC [1, 4] of less than 7.8 µM.
CCOC(=O)C1CCN(c2ccc3cc(-c4ccncc4)ccc3n2)CC1 [Compound 15, ethyl 1-(6-(pyridin-4-yl)quinolin-2-yl)piperidine-4-carboxylate hydrochloride] showed an MIC [1] of 7.8 to 15.6 µM and a pIC50 [2] of less than 4.00.
In the case of CCOC(=O)C1CCN(c2ccc3cc(-c4cccc(OC(F)(F)F)c4)ccc3n2)CC1 [Compound 25, ethyl 1-(6-(3-(trifluoromethoxy)phenyl)quinolin-2-yl)piperidine-4-carboxylate], the MIC [1, 3] was less than 7.8 µM and the MIC [1, 4] was less than 7.8 µM.
CCOC(=O)C1CCN(c2ccc3cc(-c4ccncc4)ccc3n2)C1 (centres unmarked) [Compound 67, ethyl 1-(6-(pyridin-4-yl)quinolin-2-yl)pyrrolidine-3-carboxylate] showed an MIC [1, 3] of 7.8 to 15.6 µM (≈ 2.71 to 5.42 µg/mL).

From US12383548B2, “Antibacterial quinolines” (priority 2019, dated 2025)
